Source: paper PMC3362524 (The Journal of General Physiology, 2012)
Where a chain is given by its changes, count along the chain named. Read-outs that look alike come from different tables or passages of the source.

What was measured:
Assay type in all cases: cell-based
[1] = target: T1, NaChBac (voltage-gated sodium channel from Bacillus halodurans) (Halalkalibacterium halodurans, UniProt Q9KCR8)
T1 sequence (Q9KCR8 1-274): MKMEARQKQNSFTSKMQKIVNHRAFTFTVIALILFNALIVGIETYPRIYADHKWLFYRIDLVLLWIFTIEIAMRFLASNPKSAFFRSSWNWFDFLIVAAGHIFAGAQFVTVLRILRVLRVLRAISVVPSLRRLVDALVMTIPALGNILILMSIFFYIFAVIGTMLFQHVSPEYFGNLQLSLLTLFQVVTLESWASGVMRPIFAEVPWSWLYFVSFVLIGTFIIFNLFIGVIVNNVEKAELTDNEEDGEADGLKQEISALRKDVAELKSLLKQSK

[2] = target: T2, NaChBac (voltage-gated sodium channel from Bacillus halodurans) (Halalkalibacterium halodurans, UniProt Q9KCR8, T220A); assay: patch clamp in HEK-293 cells, peak current concentration response
T2 sequence (Q9KCR8 1-274 T220A): T1 sequence (Q9KCR8 1-274) with T220A

[3] = target: T1, NaChBac (voltage-gated sodium channel from Bacillus halodurans); remark: listed apart in the source

| Structure (SMILES) | IC50 [1] [µM] | IC50 [2] [µM] | IC50 [3] [µM] |
| --- | --- | --- | --- |
| COc1ccccc1OCC(O)CN1CCN(CC(=O)Nc2c(C)cccc2C)CC1 (stereo not shown) [ranolazine] | ~60 | – | – |
| CCN(CC)CC(=O)Nc1c(C)cccc1C [lidocaine] | ~260 | 765 ± 76.3 | – |
| CCOC(=O)c1ccc(N)cc1 [benzocaine] | – | – | 650 |
